Tested on: corneal neovascularization (CNV)
Experiment: Alkali burn model: central corneal neovascularization (corneal angiography)
Type: in vivo, rabbit
Details: four corneas in each group, topical six times per day, one month
Procedure: Alkali injuries were produced in one eye of rabbits with previously published methods^10 using 1N sodium hydroxide (Sigma, St. Louis, MO) in balanced salt solution (BSS, 0.64% sodium chloride, 0.075% potassium chloride, 0.048% calcium chloride dihydrate, […] magnesium chloride hexahydrate, 0.39% sodium acetate trihydrate, 0.17% sodium citrate dihydrate, pH 7.5, Alcon, H. Worth, TX) and a 5 mm diameter circular Whatman No. 1 filter paper (Cat #1001-6508, Fisher Scientific) wetted with 100 μl of 1N NaOH solution. Following the alkali burn injury, the cornea was irrigated profusely with BSS. Each injured cornea also received one drop of ciprofloxacin (Alcon, Ft. Worth, TX, USA) ten minutes after surgery and four times a day for one week and at least 15 minutes apart from the study medications.
Worth TX), at least 5 minutes apart, or 4) 50 μl of BSS.
All corneas had fluorescent angiography at the peak of dye passage in the cornea immediately after injection of 1.5 ml of 10% sodium fluorescein (McKesson, Irvine, TX) in the central ear vein with the slit lamp system and digital camera system using a “barrier filter” that only transmitted 520-530 nm, the peak of fluorescein emission, with broad illumination of the cornea, as previously described.^11

## CCCCc1nc(Cl)c(CO)n1Cc1ccc(-c2ccccc2-c2nn[nH]n2)cc1 [losartan]
  corneas in which central corneal neovascularization developed: two

Reference: patent US20240350402A1, “TOPICAL DRUG TREATMENT TO PREVENT OR REDUCE CORNEAL SCARRING” (The Cleveland Clinic Foundation, priority 2021, published 2024)
